Results published in patent US20250345333A1, “THERAPIES WITH PPAR AGONISTS AND FGFR4 INHIBITORS” (TYRA BIOSCIENCES, INC., priority 2022, published 2025).
Where two headings read alike, the source gives them in different places.

Experiments:
[1] = tested on: CYP7A1 expression in HuH-7 cells; assay: CYP7A1 mRNA expression (qPCR, relative to Actin) in HuH-7 cells
Method: (§1) Fenofibrate or fenofibric acid was applied at a concentration of 2, 5, and 10 μM added simultaneously in combination with 30 nM of BLU-554 in growth media (DMEM supplemented with 10% Fetal Bovine Serum), for 18 hours. mRNA was then isolated and CYP7A1 expression was measured using TaqMan™ qPCR Assays (CYP7A1 assay ID: Hs00167982_m1, ACTNB assay ID: Hs99999903_m1).
(§2) Hep3B and HUH-7 cells were treated with 10 μg/ml mouse Isotype monoclonal IgG control (R&D-MAB002), or 2 μg/ml, 5 μg/ml, and 10 μg/ml of hFGF19 Antibody (R&D-AF969) for 24 hours. mRNA was then isolated and CYP7A1 expression was measured using qPCR. The depicted data represent the fold change in CYP7A1 mRNA levels compared to vehicle (DMSO) treated cells, and Actin was used as internal control.
(§3) Hep3B and HUH-7 cells were treated with 10 μg/ml of hFGF19 Antibody (R&D-AF969) in combination with 2 μM, 5 μM, or 10 μM of fenofibrate, for 24 hours. Two control groups included; untreated cells, and cell treated with 10 μg/ml mouse Isotype monoclonal IgG (R&D-MAB002), for 24 hours.

[2] = tested on: CYP7A1 expression in Hep3B cells; assay: CYP7A1 mRNA expression (qPCR, relative to Actin) in Hep3B cells
Method: as §1, §2, §3

[3] = tested on: serum C4 (7-alpha-hydroxy-4-cholestene-3-one); assay: Serum C4 in athymic nude mice carrying HuH-7 tumors; format: in vivo; conditions: 14 days; for serum C4 levels: HuH-7 tumor-bearing mice, inhibitor alone: BLU554 100 mg/kg BID, FGF401 30 or 100 mg/kg BID
[4] = tested on: Cyp7a1 mRNA expression in mouse livers; assay: Liver Cyp7a1 mRNA expression in mice
Method: For the in vivo experiments, male C57BL/6 mice were dosed orally with vehicle, fenofibrate, an FGFR4 inhibitor, or with a combination of fenofibrate and an FGFR4 inhibitor at the doses indicated. Before the final day of the study, animals were fasted overnight and serum was collected 4 hours after the final dose. Serum C4 (7-alpha-hydroxy- 4-cholestene-3-one) analyses were carried out on an Agilent 6495 triple quadrupole mass spectrometer with jet stream source coupled to an Agilent 1290 UPLC stack. Data was processed using Waters TargetLynx data processing software. Calibration curves were generated using reference standard (7A4C; Sigma-Aldrich). Calibration range was from 0.5ng/ml-200 ng/ml with an internal deuterated standard (7A4C-D7; Avanti Polar Lipids) concentration of 100 ng/ml. The vehicle for fenofibrate, FGF401 and H3B-6527 was 0.5% methylcellulose/0.5% tween 80 (MC/Tween), and the vehicle for BLU554 was 80% PEG400/4% hydroxypropyl-β-cyclodextrin (HPBCD). When combination treatments were tested, the vehicle treatment groups received both vehicles, formulated separately. In the combination treatment groups, the compounds were formulated and dosed separately.

[5] = tested on: serum C4 (7-alpha-hydroxy-4-cholestene-3-one); assay: Serum C4 in C57BL/6 mice dosed orally
Method: For the in vivo experiments, male C57BL/6 mice were dosed orally with vehicle, fenofibrate, an FGFR4 inhibitor, or with a combination of fenofibrate and an FGFR4 inhibitor at the doses indicated. Before the final day of the study, animals were fasted overnight and serum was collected 4 hours after the final dose. Serum C4 (7-alpha-hydroxy- 4-cholestene-3-one) analyses were carried out on an Agilent 6495 triple quadrupole mass spectrometer with jet stream source coupled to an Agilent 1290 UPLC stack. Data was processed using Waters TargetLynx data processing software. Calibration curves were generated using reference standard (7A4C; Sigma-Aldrich). Calibration range was from 0.5ng/ml-200 ng/ml with an internal deuterated standard (7A4C-D7; Avanti Polar Lipids) concentration of 100 ng/ml. […] When combination treatments were tested, the vehicle treatment groups received both vehicles, formulated separately. In the combination treatment groups, the compounds were formulated and dosed separately. The mean C4 value for each group of 4 mice is shown, and error bars represent standard error of the mean.

bile acid (BA) levels = assay: Bile acid levels in liver, plasma and gallbladder of athymic nude mice; conditions: oral, BID, 3 weeks; H3B-6527 300 mg/kg, FGF401 30 mg/kg; 4 hours after final dose; vs vehicle
Method: FIGS. 14A-14C are bar graphs depicting changes in bile acid (BA) levels (fold change over control) in liver (FIG. 14A), plasma (FIG. 14B), and gallbladder (FIG. 14C) of athymic nude (Nu/Nu) mice treated orally with vehicle ((1) 0.5% MC/tween), H3B-6527 ((2) 300 mg/kg, BID), or FGF401/Roblitinib ((3) 30 mg/kg, BID), for 3 weeks. Four hours after the final dose, mice were euthanized and plasma, liver and gallbladder samples were collected, and bile acid levels measured.
FIGS. 14A-14C are bar graphs depicting changes of bile acid (BA) levels (fold change over control) in liver (FIG. 14A), plasma (FIG. 14B), and gallbladder (FIG. 14C) of athymic nude (Nu/Nu) mice treated orally with vehicle (0.5% MC/tween), H3B-6527 (300 mg/kg, BID), or FGF401/Roblitinib (30 mg/kg, BID), for 3 weeks. Four hours after the final dose, mice were euthanized and plasma, liver and gallbladder samples were collected and bile acid levels measured. Bile acids were measured at the metabolomics core facility of University of Kansas Medical Center, following an established protocol.

[6] = tested on: serum C4 (7-alpha-hydroxy-4-cholestene-3-one); assay: Serum C4 in athymic nude (Nu/Nu) mice; format: in vivo; conditions: FGF401 at 30 mg/kg, H3B-6527 at 300 mg/kg

## C=CC(=O)N[C@H]1CCOC[C@H]1Nc1ncc2cc(-c3c(Cl)c(OC)cc(OC)c3Cl)ccc2n1 [BLU-554, fisogatinib]
[1]
  CYP7A1 expression (Relative mRNA expression/Actin): increased CYP7A1 expression
[2]
  CYP7A1 expression (Relative mRNA expression/Actin): increased CYP7A1 expression
[3]
  serum C4 levels: significantly raised levels
[4]; BLU-554 (100 mg/kg) alone
  liver Cyp7a1 mRNA expression (% Actb): Cyp7a1 upregulation
[5]; C57BL/6 mice, BLU554 at 100 mg/kg
  levels of serum C4: increases in levels of serum C4

## COCCNc1cc(NC(=O)N2CCCc3cc(CN4CCN(C)CC4=O)c(C=O)nc32)ncc1C#N [FGF-401, roblitinib]
[1]
  CYP7A1 expression (Relative mRNA expression/Actin): increased CYP7A1 expression
Bile acid (BA) levels
  bile acids level in gall bladder (fold change over control): increased bile acids level
  bile acids level in liver (fold change over control): increased bile acids level
  bile acids level in plasma (fold change over control): increased bile acids level
[2]
  CYP7A1 expression (Relative mRNA expression/Actin): increased CYP7A1 expression
[3]
  serum C4 levels: significantly raised levels
[6]
  levels of serum C4: increases in levels of serum C4

## C=CC(=O)Nc1cc(N2CCN(CC)CC2)ccc1Nc1cc(N(C)C(=O)Nc2c(Cl)c(OC)cc(OC)c2Cl)ncn1 [H3B-6527]
[6]
  levels of serum C4: increases in levels of serum C4

## COc1cc(OC)cc(N(CCNC(C)C)c2ccc3ncc(-c4cnn(C)c4)nc3c2)c1 [erdafitinib]
[1]
  CYP7A1 expression (Relative mRNA expression/Actin): increased CYP7A1 expression
[2]
  CYP7A1 expression (Relative mRNA expression/Actin): increased CYP7A1 expression

## CC(C)OC(=O)C(C)(C)Oc1ccc(C(=O)c2ccc(Cl)cc2)cc1 [fenofibrate]
[3]; fenofibrate 40 mg/kg QD plus BLU554 100 mg/kg BID
  rise in serum C4: significantly attenuated the rise in C4
[3]; fenofibrate 40 mg/kg QD plus FGF401 30 mg/kg BID
  rise in serum C4: attenuated the rise in C4
[4]; fenofibrate co-administered with BLU-554 (100 mg/kg)
  liver Cyp7a1 mRNA expression (% Actb): reversed BLU-554-induced Cyp7a1 upregulation in mouse livers, in a dose dependent manner
[5]; different doses of fenofibrate in combination with BLU-554 (100 mg/Kg), 6 days
  serum C4 levels: reduced the increase in C4 caused by BLU554

## C=CC(=O)N1CC[C@H](n2nc(C#Cc3cc(OC)cc(OC)c3)c3c(N)ncnc32)C1 [futibatinib]
[1]; HuH-7 cells, increasing concentrations of inhibitor alone, 18 hours
  CYP7A1 expression (Relative mRNA expression/Actin): increased CYP7A1 expression
[2]; Hep3B cells, increasing concentrations of inhibitor alone, 18 hours
  CYP7A1 expression (Relative mRNA expression/Actin): increased CYP7A1 expression
